Measurements as given in PubChem BioAssay AID1421 (Emory University Molecular Libraries Screening Center, 2008).

These molecules were tested against Prostaglandin E2 receptor EP2 subtype (Homo sapiens) (UniProt P43116) (assay: compounds shifting PGE2 potency at EP2 – cell-based, human EP2, PGE2 EC50 shift, dose response (AID 1421)). Details: EP2-expressing cells, PGE2 EC50 shift by compound; measured here: PGE2 EC50 at 6.7 uM compound.
Prostaglandin E2 receptor EP2 subtype (Homo sapiens), sequence (P43116 whole entry, looked up): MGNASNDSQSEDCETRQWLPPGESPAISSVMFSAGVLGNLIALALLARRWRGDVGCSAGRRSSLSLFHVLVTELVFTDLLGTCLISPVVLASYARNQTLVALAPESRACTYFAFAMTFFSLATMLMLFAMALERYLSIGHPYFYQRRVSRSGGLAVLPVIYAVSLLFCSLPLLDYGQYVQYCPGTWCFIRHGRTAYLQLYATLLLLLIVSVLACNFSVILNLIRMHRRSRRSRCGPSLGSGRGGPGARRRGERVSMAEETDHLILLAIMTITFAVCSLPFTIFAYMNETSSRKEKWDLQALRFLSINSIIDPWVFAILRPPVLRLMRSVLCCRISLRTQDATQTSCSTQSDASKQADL
`CCOc1ccc2cc(C#N)c(SCC(=O)NC(C)CC)nc2c1` (stereo unspecified) was tested, and the PGE2 EC50 with compound was 1.36 nM.
Work on `CCOC(=O)c1c(NC(=O)COC(=O)Cn2cnc3ccccc32)sc2c1CCC(C)C2` (stereo unspecified) yielded a PGE2 EC50 with compound of 0.79 nM.
`Cn1nc(C(F)(F)F)c(/C=N/OC(=O)c2ccccc2)c1Sc1ccc(Cl)cc1` gave a PGE2 EC50 with compound of 1.31 nM.
`Cc1sc(NC(=O)c2cccs2)c(C(=O)OC(C)C)c1C` gave a PGE2 EC50 with compound of 2.6 nM.
In the case of `Cc1ccc(C(C)C)c(OCc2ccc(-c3nnco3)cc2)c1`, the PGE2 EC50 with compound is reported as 2.51 nM.
Work on `CCSc1ccccc1C(=O)n1nnc2ccccc21` yielded a PGE2 EC50 with compound of 1.77 nM.
In the case of `Cc1ccccc1OCc1nc2ccccc2c(=O)n1/N=C/c1ccco1`, the PGE2 EC50 with compound is reported as 1.02 nM.
`NS(=O)(=O)c1ccc(NCc2cnc3ccccc3n2)cc1` gave a PGE2 EC50 with compound of 0.64 nM.
`CC1(C)C2CCC1(C)C(OC(=O)CC(=O)O)C2` (stereo unspecified) showed a PGE2 EC50 with compound of 0.72 nM.
Molecule `COc1cc(OC)c(OC)cc1CNCCc1ccc(OC)c(OC)c1` has a PGE2 EC50 with compound of 1.3 nM.
Molecule `CC1(C)OC(c2ccccc2)=C/C(=C/C=Nc2ccccc2)O1` has a PGE2 EC50 with compound of 0.99 nM.
With `CCOC(=O)c1c(CC(C)C)csc1NC(=O)CCl` the PGE2 EC50 with compound was 1.13 nM.
`CC1Cc2ccccc2N1C(=O)CSc1nnc(Cc2ccccc2)n1CCc1ccccc1` (stereo unspecified) was tested, and the PGE2 EC50 with compound was 1.14 nM.
In the case of `CCN(CC)C(=O)c1nn(-c2ccccc2)c2c1C1CCC2(C)C1(C)C` (stereo unspecified), the PGE2 EC50 with compound is reported as 1.24 nM.
For `CCOc1ccc(N(Cc2ccc(OC)cc2)C(=O)c2ccco2)cc1`, the PGE2 EC50 with compound was 1.12 nM.
With `Cc1nc(SCCC(=O)O)c2ccccc2n1` the PGE2 EC50 with compound was 2.93 nM.
In the case of `Fc1cccc(CSc2ncnc3c2oc2ccccc23)c1`, the PGE2 EC50 with compound is reported as 2.7 nM.
Molecule `O=C(O)c1cc2cc(F)ccc2[nH]1` has a PGE2 EC50 with compound of 0.93 nM.
`CCOC(=O)C(Cc1ccccc1)(NC(C)=O)C(=O)OCC` gave a PGE2 EC50 with compound of 1.39 nM.
`C=CCSc1nc2ccccc2c(=O)n1Cc1ccccc1` showed a PGE2 EC50 with compound of 0.72 nM.
`CC1=CC(C)(C)N(S(=O)(=O)c2ccc(F)cc2)c2ccc(C)cc21` was tested, and the PGE2 EC50 with compound was 0.8 nM.
`Cc1cc(C)c(S(=O)(=O)N(C2=NCCS2)S(=O)(=O)c2c(C)cc(C)cc2C)c(C)c1` showed a PGE2 EC50 with compound of 0.99 nM.
`COc1ccc(OC)c(-c2cnc(OC(C)(C)C)nc2OC(C)(C)C)c1` was tested, and the PGE2 EC50 with compound was 1.35 nM.
For `COc1ccc(C)cc1NC(=O)C1CC(=O)OC12CCCCC2` (stereo unspecified), the PGE2 EC50 with compound was 0.67 nM.
For `O=S(=O)(Nc1ccccc1N1CCCCC1)c1ccc(Cl)s1`, the PGE2 EC50 with compound was 1.49 nM.
`Cc1cc(Oc2ccccc2F)nc(NCc2ccccc2)n1` was tested, and the PGE2 EC50 with compound was 1.34 nM.
Work on `C/C(=N\O)C(=O)OC1CC(C)CCC1C(C)C` (stereo unspecified) yielded a PGE2 EC50 with compound of 0.88 nM.
Work on `CCCCOc1ccccc1C1C(C(=O)OC)=C(C)N(C)C(C)=C1C(=O)OC` yielded a PGE2 EC50 with compound of 0.69 nM.
In the case of `Cc1ccc(C(=O)c2coc3ccc(OCC(=O)O)cc23)cc1`, the PGE2 EC50 with compound is reported as 2.78 nM.
For `Cn1c(=O)c2c(nc(CN3CCN(c4ccccc4)CC3)n2Cc2c(F)cccc2Cl)n(C)c1=O`, the PGE2 EC50 with compound was 1.38 nM.
In the case of `Cc1cc(SCC(=O)Nc2cccnc2Cl)nc2ccccc12`, the PGE2 EC50 with compound is reported as 0.87 nM.
Molecule `COc1cc2cc(Br)cc(Br)c2nc1C` has a PGE2 EC50 with compound of 2.62 nM.
`c1ccc(C2Nc3ccccc3Oc3ccccc32)cc1` (stereo unspecified) showed a PGE2 EC50 with compound of 0.85 nM.
With `Cc1cccc(OCc2n[nH]c(=S)n2Cc2ccccc2)c1` the PGE2 EC50 with compound was 1.31 nM.
For `COc1ccccc1-c1nnc2sc(-c3cc4ccccc4o3)nn12`, the PGE2 EC50 with compound was 6.03 nM.
Work on `Cc1ccc(C)n1-c1ccc(N(C)C)cc1` yielded a PGE2 EC50 with compound of 0.75 nM.
`CCN(c1cccc(C)c1)S(=O)(=O)c1ccc2c3c(cccc13)C(=O)N2` showed a PGE2 EC50 with compound of 0.53 nM.
In the case of `CC1(C)Cc2ccccc2-c2nc3n(c(=O)c21)CCS3`, the PGE2 EC50 with compound is reported as 0.79 nM.
`Cc1ccccc1-c1n[nH]c(=S)n1/N=C/c1ccc(-c2ccccc2Br)o1` was tested, and the PGE2 EC50 with compound was 2.42 nM.
With `N#Cc1c(-c2ccco2)nc(SCc2ccc(F)cc2)[nH]c1=O` the PGE2 EC50 with compound was 2.86 nM.
`CCOC(=O)c1sc(NC(=O)C(CC)OC(=O)C(CC(C)C)NC(=O)c2ccccc2)nc1C` (stereo unspecified) was tested, and the PGE2 EC50 with compound was 1.22 nM.
Molecule `CCCCn1c(=O)c(C(=O)NCc2ccco2)c(O)c2ccccc21` has a PGE2 EC50 with compound of 2.62 nM.
For `Cc1ccc(S(=O)(=O)n2c3ccc(Cl)cc3c3nc(C)sc32)cc1`, the PGE2 EC50 with compound was 0.44 nM.
With `c1ccc(-c2nn3c(-c4ccccc4)nnc3s2)cc1` the PGE2 EC50 with compound was 0.84 nM.
Molecule `CC1=C(/C=C/C(C)=C/C=C/C(C)=C/C(=O)O)C(C)(C)CCC1` has a PGE2 EC50 with compound of 1.19 nM.
With `c1ccc(Cc2nnc(Sc3ccccc3)c3ccccc23)cc1` the PGE2 EC50 with compound was 2.76 nM.
`C=C1CCC2C(CC2(C)C)C(=C)CC/C1=N/O` (stereo unspecified) showed a PGE2 EC50 with compound of 1.61 nM.
`O=C(OCc1ccc(Cl)cc1)c1ccccc1C(=O)c1ccccc1` was tested, and the PGE2 EC50 with compound was 1.02 nM.
`C=CCC(=O)OCCCCCCOc1ccc(C(=O)O)cc1` was tested, and the PGE2 EC50 with compound was 0.58 nM.
With `CCC1(CC)Cc2ccccc2-c2nc(NCCO)[nH]c(=O)c21` the PGE2 EC50 with compound was 1.25 nM.
`CCCN(CCC)C(C)C(=O)NCC1(c2ccccc2)CCCC1` (stereo unspecified) was tested, and the PGE2 EC50 with compound was 0.94 nM.
In the case of `CC(=O)C1CC[C@H]2C3CC[C@H]4C[C@H](O)CC[C@]4(C)C3CC[C@]12C` (stereo partly specified), the PGE2 EC50 with compound is reported as 0.89 nM.
In the case of `Cc1cc(C)c(S(=O)(=O)c2ccccc2)c(OC(=O)c2cc(F)c(F)cc2Cl)n1`, the PGE2 EC50 with compound is reported as 0.91 nM.
Work on `COc1ccc(CSC2=C(C#N)C(=O)NC3(CCCCC3)S2)cc1` yielded a PGE2 EC50 with compound of 1.3 nM.
In the case of `Cc1ccc(Oc2nc(-c3ccccc3)ncc2S(C)(=O)=O)cc1`, the PGE2 EC50 with compound is reported as 1.12 nM.
Molecule `CCOC(=O)C1=C(CN2CCc3ccccc32)NC(=O)NC1c1ccc(Cl)cc1` (stereo unspecified) has a PGE2 EC50 with compound of 1.21 nM.
